In brackets after ≈: the same amount, converted by molar mass. Several values for one entry are separate records, joined by “and”; a condition that tells them apart may be missing. Equal entries are not always repeated. Where two headings read alike, the source gives them in different places. Where a SMILES comes first, the peptide text is derived from it.
What was measured:
C. michiganensis [1] = tested on: C. michiganensis
C. fangii [2] = tested on: C. fangii
[3] = tested on: Gram-negative and Gram-positive bacteria; details: range over C. fangii, R. solanacearum, C. michiganensis, X. oryzae pv oryzae, X. oryzae pv. oryzicola, B. subtilis (168)
X. oryzae pv. oryzae [4] = details: X. oryzae pv. oryzae (Gram-negative); purified peptide; LB medium, 28 °C, 24 h
X. oryzae pv. oryzicola = X. oryzae pv. oryzicola (Gram-negative); purified peptide; LB medium, 28 °C, 24 h
R. solanacearum [5] = details: R. solanacearum (Gram-negative); purified peptide; LB medium, 28 °C, 24 h
X. oryzae pv. oryzae [6] = format: cell-based, Xanthomonas oryzae pv. oryzae; details: peptide 1 × MIC, OD600
X. oryzae pv. oryzae [7] = format: cell-based, Xanthomonas oryzae pv. oryzae; details: peptide at MIC, 10 μM DCFH-DA, 28 °C, after 30 min, upward trend at 120 min; compared to untreated strain
X. oryzae pv. oryzae [8] = tested on: X. oryzae pv. oryzae; parameters: species or system rice; details: control SCK6-e
X. oryzae pv. oryzae [9] = format: cell-based, Xanthomonas oryzae pv. oryzae; details: X. oryzae pv. oryzae (G-); extracellular peptide from B. subtilis strain; mean ± SD, three independent experiments; control SCK6-e 0.66 ±0.033
X. oryzae pv. oryzae [10] = format: cell-based, Xanthomonas oryzae pv. oryzae; details: peptide at MIC, 2 h, 28 °C; X. oryzae pv. oryzae exponential phase; flow cytometry; control 0.07%
R. solanacearum [11] = format: cell-based, Ralstonia solanacearum; details: R. solanacearum (G-); extracellular peptide from B. subtilis strain; mean ± SD, three independent experiments; control SCK6-e 0.75 ±0.050
C. fangii [12] = format: cell-based, Clavibacter fangii
[13] = tested on: C. fangii, X. oryzae pv. oryzae, C. michiganensis, and R. solanacearum; format: physicochemical; details: heated 30 min at 4 °C, 50 °C, 80 °C and 100 °C; agar diffusion on four indicator bacteria; compared to control SCK6-e
X. oryzae pv. oryzae [14] = format: cell-based, Xanthomonas oryzae pv. oryzae; details: peptide at MIC, 2 h, 28 °C; PBS control
Magnaporthe oryzae = format: cell-based; details: peptide 260 μg/mL in PDA, 28 °C, 96 h; buffer control
C. fangii [15] = test: Salt sensitivity assay; format: cell-based, Clavibacter fangii; details: peptide 1 × MIC, OD600
X. oryzae pv. oryzae [16] = format: cell-based, Xanthomonas oryzae pv. oryzae; details: peptide at MIC; 28 °C, OD600 at 2–24 h; compared with polymyxin B
C. michiganensis [17] = format: cell-based, Clavibacter michiganensis subsp

| Compound | MIC (range over six bacteria) [3] | MIC (X. oryzae pv. oryzae [4]) | MIC (X. oryzae pv. oryzicola) | MIC (R. solanacearum [5]) | MIC (C. michiganensis [1]; 24 h) | bacteriostatic diameter (X. oryzae pv. oryzae [9]) | bacteriostatic diameter (R. solanacearum [11]) | bacteriostatic diameter (C. fangii [12]) | MIC (C. fangii [2]; 24 h) | bacteriostatic diameter (C. michiganensis [17]) | MIC (B. subtilis (168); 168, 24 h) | also measured |
| --- | --- | --- | --- | --- | --- | --- | --- | --- | --- | --- | --- | --- |
| Polymyxin B [reference compound] | 5 to 25 µM and 5.0 to 25.0 µM | 5.0 µM | 10.0 µM | 7.5 µM | – | – | – | – | – | – | – | MIC (C. michiganensis [1]): 12.5 µM; MIC (C. fangii [2]): 25.0 µM; MIC (B. subtilis (168); B. subtilis (168) (Gram-positive), purified peptide, LB medium, 28 °C, 24 h): 15.0 µM |
| CC[C@H](C)[C@H](NC(=O)[C@H](CO)NC(=O)[C@H](CCCCN)NC(=O)[C@H](CCCNC(=N)N)NC(=O)[C@@H](NC(=O)[C@H](CCC(=O)O)NC(=O)[C@H](Cc1ccc(O)cc1)NC(=O)[C@H](CS)NC(=O)[C@H](Cc1c[nH]cn1)NC(=O)[C@@H](NC(=O)[C@H](Cc1c[nH]cn1)NC(=O)[C@H](CCCCN)NC(=O)[C@H](CCC(=O)O)NC(=O)[C@H](CO)NC(=O)[C@H](CO)NC(=O)[C@@H](NC(=O)[C@H](CS)NC(=O)[C@H](CC(N)=O)NC(=O)[C@H](Cc1ccc(O)cc1)NC(=O)[C@@H](NC(=O)[C@H](Cc1c[nH]cn1)NC(=O)[C@@H](NC(=O)[C@H](Cc1ccc(O)cc1)NC(=O)[C@@H](NC(=O)[C@H](CC(=O)O)NC(=O)[C@@H](NC(=O)[C@@H](N)CC(C)C)C(C)C)[C@@H](C)CC)[C@@H](C)O)C(C)C)[C@@H](C)O)[C@@H](C)O)[C@@H](C)CC)C(=O)N[C@@H](CO)C(=O)O [OrR214] (H-LVDIYTHVYNCTSSEKHTHCYEIRKSIS-OH) | – | – | – | – | 10.5 µM (≈ 34.9 µg/mL) | 1.3 ±0.058 cm | 1.3 ±0.050 cm | 1.1 ±0.033 cm | 10.7 µM (≈ 35.6 µg/mL) | 1.2 ±0.033 cm | 8.3 µM (≈ 27.6 µg/mL) | antimicrobial activity at 150 mM Na+ (X. oryzae pv. oryzae [6]; NaCl 150 mM): slightly affected; antibacterial activity at 50–100 mM Na+ (X. oryzae pv. oryzae [6]; NaCl 50, 100 mM): significant bacteriostatic effect; ROS production, DCFH-DA fluorescence intensity (X. oryzae pv. oryzae [7]): significantly increased; necrotic leaf lesion growth on detached rice leaves (X. oryzae pv. oryzae [8]; X. oryzae pv. oryzae mixed with peptide, leaf clipping, 28 °C, 7 d): decreased necrotic leaf lesion growth; incidence of rice leaves (X. oryzae pv. oryzae [8]; X. oryzae pv. oryzae, 7 d post-inoculation, lesion length): decreased significantly; PI staining rate (PI uptake) (X. oryzae pv. oryzae [10]): ~37.1%; antimicrobial activity after heating (thermal stability) [13]: significant activity; cell morphology by SEM and TEM (X. oryzae pv. oryzae [14]): severe damage to the cell membrane surface; mycelium growth of Magnaporthe oryzae (Magnaporthe oryzae): significantly inhibit the mycelium growth; antimicrobial activity at 150 mM Na+ (C. fangii [15]; NaCl 150 mM): slightly affected; antibacterial activity at 50–100 mM Na+ (C. fangii [15]; NaCl 50, 100 mM): significant bacteriostatic effect; time-kill, bacterial growth after peptide treatment (X. oryzae pv. oryzae [16]): hardly grew after 12 h of treatment |
| CSCC[C@H](NC(=O)[C@@H](NC(=O)[C@@H](NC(=O)[C@H](CC(N)=O)NC(=O)[C@H](CC(N)=O)NC(=O)[C@H](CC(C)C)NC(=O)[C@H](CCCNC(=N)N)NC(=O)[C@H](CC(C)C)NC(=O)[C@@H](NC(=O)[C@H](CO)NC(=O)[C@H](CO)NC(=O)[C@@H](NC(=O)[C@@H]1CCCN1C(=O)[C@@H](NC(=O)CNC(=O)[C@@H](N)CC(C)C)C(C)C)C(C)C)[C@@H](C)O)[C@@H](C)O)[C@@H](C)O)C(=O)N[C@@H](CC(N)=O)C(=O)N1CCC[C@H]1C(=O)N[C@@H](CS)C(=O)N[C@@H](CC(C)C)C(=O)N1CCC[C@H]1C(=O)N[C@@H](CO)C(=O)O [OrR935] (H-LGVPVSSTLRLNNTTMNPCLPS-OH) | 31.4 to 44.0 µM | 44.0 µM (≈ 102 µg/mL) | 31.4 µM (≈ 72.7 µg/mL) | 33 µM (≈ 76.4 µg/mL) | 34.6 µM (≈ 80.1 µg/mL) | – | – | – | 37.7 µM (≈ 87.3 µg/mL) | – | 36.1 µM (≈ 83.6 µg/mL) | – |
| LSFCSCIRTNLDGFDQKLQWNPHFY [OrR1135, candidate antimicrobial peptide from the O. rufipogon cDNA library, 25 amino acids] | – | – | – | – | – | 1.2 ±0.11 cm | 1.4 ±0.050 cm | 1.1 ±0.060 cm | – | 1.2 ±0.033 cm | – | – |
